Source: patent US5939523A, “Purification of dalbaheptide antibiotics by isoelectric focusing” (Gruppo Lepetit SpA, priority 1995, dated 1999)

Test: Analytical immobilized pH gradient (IPG) gels for determining pI values
Format: physicochemical
Conditions: analytical IPG gel, pH interval 8.0 to 9.0, mixture of 8M urea and 1% CHAPS
Source text: Preparation of Analytical Immobilized pH Gradient (IPG) Gels, for Determining the pI Values of the Main Component and of the Impurities
Gel dimension: 25×10 cm, 0, 5 mm thick; pH interval: 7.0 to 10.0.
The IPG ranges are set in a 5% T, 4% C polyacrylamide matrix, according to the preparation recipe disclosed in Ref. 110. After preparing the two limiting, acidic and basic mixtures, they are titrated (with a weak acid and a weak base) to pH values close to neutrality. This is important in order to ensure uniform polymerization and efficient monomer conversion throughout the preformed pH gradient. Upon gel washing in distilled water (3×30 min), all added titrants (as well as catalysts and ungrafted monomers) are efficiently removed. The gels are then equilibrated for 30 min in 2% glycerol solution, dried in air and reswollen in a mixture of 8M urea and 3.5% CHAPS, overnight. The sample is applied in surface wells at the anodic gel side in concentrations from 80 to 600 μg/track. […]
For exactly determining the pI value of the amide derivative of factor B0 and factor B1, the above procedure is repeated under the same conditions, in the pH interval from 8.0 to 9.0 using a mixture of 8M urea and 1% CHAPS. The so determined pI value of the amide derivative of factor B0 is 8.56, whilst the pI value of the amide derivative of factor B1 is 8.40.

pI value	Substance
8.40	6^B -decarboxy-6^B -(hydroxymethyl)-N^63 -3-(dimethyl-amino)propyl amide derivative of antibiotic A40926 factor B1 [amide derivative of factor B1]
8.56	6^B -decarboxy-6^B -(hydroxymethyl)-N^63 -3-(dimethyl-amino)propyl amide derivative of antibiotic A40926 factor B0 [amide derivative of factor B0]
